Molecular target: native CB1 receptors (Rattus norvegicus, UniProt P20272)
Assay: CB1 receptor rat binding assay ([3H]SR141716A, rat brain membranes)
Conditions: rat brain membranes, [3H]SR141716A; for Ki: read-out: Binding rat pKi (converted)

Chain of native CB1 receptors (P20272 whole entry): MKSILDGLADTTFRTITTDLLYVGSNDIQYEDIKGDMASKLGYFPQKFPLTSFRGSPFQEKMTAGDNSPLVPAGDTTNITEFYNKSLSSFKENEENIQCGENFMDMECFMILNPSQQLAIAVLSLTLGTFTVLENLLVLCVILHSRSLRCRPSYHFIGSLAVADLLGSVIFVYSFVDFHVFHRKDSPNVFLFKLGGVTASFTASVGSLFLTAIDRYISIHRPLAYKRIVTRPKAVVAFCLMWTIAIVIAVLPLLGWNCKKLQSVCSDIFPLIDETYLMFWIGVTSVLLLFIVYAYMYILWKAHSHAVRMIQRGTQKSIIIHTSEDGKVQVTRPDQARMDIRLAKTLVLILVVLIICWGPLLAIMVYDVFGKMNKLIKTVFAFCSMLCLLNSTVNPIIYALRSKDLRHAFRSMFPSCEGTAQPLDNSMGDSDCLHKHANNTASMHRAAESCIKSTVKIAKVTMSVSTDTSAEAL

Row | Ki [nM] | Binding rat Inh % [%] | SMILES
1 | 3.98 | – | O=C(NCc1ccc(F)cc1)c1ccc2c(c1)N=C(c1ccccc1)c1ccccc1S2 [drawing 1352]
2 | 3.98 | 108 | Cc1cccc(C2=Nc3cc(C(=O)NCc4ccc(C)o4)ccc3Sc3ccccc32)n1 [drawing 1353]
3 | 31.6 | – | O=C(NCc1ccccc1Br)c1ccc2c(c1)N=C(c1ccccc1F)c1ccccc1S2 [drawing 1355]
4 | 31.6 | 108 | C[C@@H]1CCC[C@H](C)N1NC(=O)c1ccc2c(c1)N=C(c1ccc(F)cc1)c1ccccc1S2 [drawing 1356]
5 | 31.6 | – | CCCC1=Nc2cc(C(=O)NCCCc3ccccc3)ccc2Sc2ccccc21 [drawing 1357]
6 | 31.6 | 89 | COCCNC(=O)c1ccc2c(c1)N=C(c1ccc(Br)cc1)c1ccccc1S2 [drawing 1358]
7 | 3.98 | 95 | CC(C)CNC(=O)c1ccc2c(c1)N=C(c1ccc(Cl)s1)c1ccc(F)cc1S2 [drawing 1359]
8 | 31.6 | 72 | CC(C)NC(=O)c1ccc2c(c1)N=C(c1ccc(Cl)cc1F)c1ccccc1S2 [drawing 1363]
9 | 31.6 | 71 | COc1ccc(C2=Nc3cc(C(=O)NC4CCCC4)ccc3Sc3ccccc32)cc1 [drawing 1364]
10 | 31.6 | – | O=C(NCc1ccccc1)c1ccc2c(c1)N=C(c1ccccc1F)c1ccccc1S2 [drawing 1365]
11 | 31.6 | – | O=C(NCc1ccccc1Cl)c1ccc2c(c1)N=C(N1CCCCC1)c1ccccc1S2 [drawing 1366]
12 | 3.98 | – | O=C(NCCc1ccc(Cl)cc1)c1ccc2c(c1)N=C(c1ccc(F)cc1)c1ccccc1S2 [drawing 1367]
13 | 5.01 | – | O=C(NCc1ccccc1)c1ccc2c(c1)N=C(c1ccc(Cl)cc1)c1ccccc1S2 [drawing 1368]
14 | 5.01 | 93 | O=C(NCc1ccco1)c1ccc2c(c1)N=C(c1ccc(Cl)cc1)c1ccccc1S2 [drawing 1369]
15 | 5.01 | 103 | O=C(NCc1ccco1)c1ccc2c(c1)N=C(c1ccc(F)cc1)c1ccccc1S2 [drawing 1370]
16 | 31.6 | 84 | Cc1cnc(-c2ccc3c(c2)N=C(c2ccc(Cl)cc2)c2ccccc2S3)[nH]1 [drawing 1371]
17 | 31.6 | 90 | CC(C)NC(=O)c1ccc2c(c1)N=C(c1ccc(Cl)cc1)c1ccccc1S2 [drawing 1372]
18 | 31.6 | 95 | O=C(NN1CCCCC1)c1ccc2c(c1)N=C(c1ccc(Cl)cn1)c1ccccc1S2 [drawing 1373]
19 | 5.01 | – | O=C(NCc1cccc(Cl)c1)c1ccc2c(c1)N=C(c1cccc(Cl)c1)c1cc(F)ccc1S2 [drawing 1375]
20 | 5.01 | – | O=C(NCCc1ccc(Cl)cc1)c1ccc2c(c1)N=C(c1ccc(Cl)cc1)c1ccccc1S2 [drawing 1376]
21 | 5.01 | 97 | O=C(NCCC(F)(F)F)c1ccc2c(c1)N=C(c1ccc(Cl)cc1F)c1ccccc1S2 [drawing 1377]

Row | Ki [nM] | Binding rat Inh % [%] | SMILES
22 | 5.01 | 83 | CCCCNC(=O)c1ccc2c(c1)N=C(c1ccc(Br)cn1)c1ccccc1S2 [drawing 1378]
23 | 31.6 | – | CC(NC(=O)c1ccc2c(c1)N=C(c1ccccc1)c1ccccc1S2)c1ccccc1 (centres unmarked) [drawing 1379]
24 | 31.6 | 79 | O=C(NN1CCCCC1)c1ccc2c(c1)N=C(c1cccc(Cl)c1)c1ccccc1S2 [drawing 1380]
25 | 31.6 | 109 | O=C(NCc1cccs1)c1ccc2c(c1)N=C(c1ccccn1)c1ccccc1S2 [drawing 1381]
26 | 31.6 | 102 | Cc1ccsc1C1=Nc2cc(C(=O)NC3CCCC3)ccc2Sc2ccccc21 [drawing 1382]
27 | 5.01 | 112 | O=C(NCc1ccco1)c1ccc2c(c1)N=C(c1ccc(Cl)s1)c1ccccc1S2 [drawing 1383]
28 | 5.01 | 95 | O=C(NCc1cccs1)c1ccc2c(c1)N=C(c1cccc(F)c1)c1ccccc1S2 [drawing 1384]
29 | 5.01 | 84 | O=C(NN1CCCCCC1)c1ccc2c(c1)N=C(c1ccc(Cl)cc1F)c1ccccc1S2 [drawing 1386]
30 | 31.6 | 64 | CCCNC(=O)c1ccc2c(c1)N=C(c1sccc1C)c1ccccc1S2 [drawing 1387]
31 | 31.6 | – | O=C(NCc1ccccc1Br)c1ccc2c(c1)N=C(c1ccc(Cl)cc1)c1ccccc1S2 [drawing 1388]
32 | 31.6 | – | O=C(NCc1cccc(Cl)c1)c1ccc2c(c1)N=C(c1ccc(F)cc1)c1ccccc1[S+]2[O-] (centres unmarked) [drawing 1390]
33 | 5.01 | – | O=C(NCc1ccccc1Br)c1ccc2c(c1)N=C(C1CCCCC1)c1ccccc1S2 [drawing 1392]
34 | 5.01 | 87 | O=C(NN1CCCCC1)c1ccc2c(c1)N=C(c1ccc(Cl)c(F)c1)c1ccccc1S2 [drawing 1394]
35 | 31.6 | – | CCCC1=Nc2cc(C(=O)NCC(C)c3ccccc3)ccc2Sc2ccccc21 (centres unmarked) [drawing 1395]
36 | 39.8 | 94 | C[C@@H]1CCC[C@H](C)N1NC(=O)c1ccc2c(c1)N=C(c1ccc(Cl)cc1)c1ccccc1S2 [drawing 1396]
37 | 39.8 | – | O=C(NN1CCCCC1)c1ccc2c(c1)N=C(N1CCCCC1)c1ccccc1S2 [drawing 1397]
38 | 39.8 | 74 | O=C(NCCc1ccccn1)c1ccc2c(c1)N=C(c1ccc(Cl)cc1F)c1ccccc1S2 [drawing 1398]
39 | 5.01 | 78 | O=C(NC1CCCC1)c1ccc2c(c1)N=C(c1ccc(Cl)c(Cl)c1)c1ccccc1S2 [drawing 1399]
40 | 6.31 | 102 | Cc1ccc(CNC(=O)c2ccc3c(c2)N=C(c2sccc2C)c2ccccc2S3)o1 [drawing 1400]
41 | 6.31 | 102 | O=C(NCc1cccnc1)c1ccc2c(c1)N=C(c1ccc(Cl)c(Cl)c1)c1ccccc1S2 [drawing 1401]

Row | SMILES | Ki [nM] | Binding rat Inh % [%]
42 | CC(C)CNC(=O)c1ccc2c(c1)N=C(c1ccc(Br)cc1)c1ccccc1S2 [drawing 1354] | 3.98 | 77
43 | O=C(NCCC(F)(F)F)c1ccc2c(c1)N=C(c1ccc(Cl)cc1)c1ccccc1S2 [drawing 1360] | 3.98 | 99
44 | CC(C)CNC(=O)c1ccc2c(c1)N=C(c1cccc(Cl)c1)c1ccccc1S2 [drawing 1361] | 3.98 | 99
45 | CC(CNC(=O)c1ccc2c(c1)N=C(c1ccc(F)cc1)c1ccccc1S2)c1ccccc1 (centres unmarked) [drawing 1362] | 3.98 | –
46 | O=C(NN1CCCCC1)c1ccc2c(c1)N=C(c1cccc(F)c1)c1ccccc1S2 [drawing 1374] | 31.6 | 94
47 | O=C(NN1CCCCC1)c1ccc2c(c1)N=C(c1ccc(Cl)s1)c1ccccc1S2 [drawing 1385] | 5.01 | 88
48 | O=C(NCCc1ccncc1)c1ccc2c(c1)N=C(c1cccc(F)c1)c1ccccc1S2 [drawing 1389] | 31.6 | 88
49 | O=C(NCc1ccc(F)cc1)c1ccc2c(c1)N=C(c1cccc(Cl)c1)c1ccccc1S2 [drawing 1391] | 5.01 | –
50 | C[C@@H]1CCC[C@H](C)N1NC(=O)c1ccc2c(c1)N=C(c1ccc(Cl)c(Cl)c1)c1ccccc1S2 [drawing 1393] | 5.01 | 114

— patent US20080090805A1, “CB-1 MODULATING COMPOUNDS AND THEIR USE” (ACADIA PHARMACEUTICALS INC., priority 2005, published 2008)
